Experimental data reported in publication PMC6271559, “Synthesis and Evaluation of 2,4-Disubstituted Quinazoline Derivatives with Potent Anti-Angiogenesis Activities” (Molecules, 2014).
Where two headings read alike, the source gives them in different places.

Experiments:
[1] = test system: CNE-2 (human nasopharyngeal cancer) cells; assay: MTT cytotoxicity assay, CNE-2; assay type: cell-based; conditions: 48 h, mean of three independent assays
Source text: (§1) In the early 80s, scientists proposed anti-angiogenesis as a potential target in cancer therapy. Much research in the past 30 years has targeted tumor angiogenesis as a means of inhibiting the process of tumor-caused blood vessel formation. Endothelial cells, which come from the inner lining of blood vessels, makes up a fundamental part of new blood vessels as well as pre-existing ones. A complete angiogenesis process includes the proliferation, migration, and differentiation of endothelial cells, so a great deal of angiogenesis inhibitors discovered to date target endothelial cells. We thus employed a cell proliferation assay to evaluate the cytotoxicity of quinazoline derivatives against both normal (HUVEC) and tumor cell lines (CNE-2, PC-3, and SMMC-7721 cell lines) so we can screen some molecules that have cytotoxicity against tumor cells but low cytotoxicity against HUVECs. Meanwhile, an appropriate concentration range of these compounds could be determined to further study their inhibitive effects against the proliferation, migration, and differentiation of HUVECs. The cytotoxic activities of quinazoline derivatives against human tumor cell lines CNE-2 (human nasopharyngeal cancer), PC-3 (human prostatic carcinoma), SMMC-7721 (human liver cancer) and Human Umbilical Vein Endothelial Cells (HUVECs) were determined by using the MTT cytotoxicity assay.
(§2) HUVEC, CNE-2, PC-3, and 7721 cell lines were seeded on 96-well plates at a concentration of 5,000 cells per well and exposed to various concentrations of quinazoline derivatives. After 48 h of treatment at 37 °C in a humidified atmosphere of 5% CO2, 5 mg/mL MTT solution (10 μL) was added to each well and further incubated for 4 h. Each well was then added dimethyl sulfoxide (DMSO, 100 μL), and the optical density (OD) was recorded at 490 nm. All measurements were done in triplicate, and the IC50 values were derived from the mean OD values of the triplicate tests versus drug concentration curves.

[2] = test system: PC-3 (human prostatic carcinoma) cells; assay: MTT cytotoxicity assay, PC-3; assay type: cell-based; conditions: Prostatic carcinoma cell, 48 h, mean of three independent assays
Source text: as §1, §2

[3] = test system: SMMC-7721 (human liver cancer) cells; assay: MTT cytotoxicity assay, SMMC-7721; assay type: cell-based; conditions: 48 h, mean of three independent assays
Source text: as §1, §2

[4] = MTT cytotoxicity assay, HUVEC; assay type: cell-based; conditions: human, HUVEC (human umbilical vein endothelial cells), mean of three independent assays
Source text: as §1, §2

[5] = test system: HUVEC adhesion to collagen; assay: HUVEC adhesion assay on type I collagen; assay type: cell-based, human; conditions: Homo sapiens, HUVEC, adhesion of HUVEC on collagen, 37 °C
Source text: A perfect angiogenesis inhibitor must be show lower toxicity toward HUVECs, while showing high inhibitive capability towards the proliferation, migration, and differentiation of HUVECs. To assess the inhibitory effects of 2,4-disubstituted quinazoline derivatives, three assays were used: HUVEC adhesion assay, HUVEC migration assay and CAM assay. Firstly, to test the inhibitory effects of quinazoline derivatives on the attachment of endothelial cells to type I collagen, cell adhesion assays were carried out.
Cell adhesion assay was carried out by a reported method with slight modification. Wells of a 96-well plate were coated at room temperature overnight with rat trail tendon collagen type I (2 μg) in PBS in a final volume of 100 μL. The wells were washed three times with PBS ([…]) and then blocked with 0.2% bovine serum albumin (BSA) in PBS ([…]) for 2 h at 37 °C in a cell culture incubator. The wells were then washed three times with PBS ([…]). HUEVCs were detached from the dish, resuspended in DMEM, and added (50 μL, 10^4 cells/mL) to each well followed by the related compounds (50 μL) at various concentrations. The plates were incubated for 1 h or 3 h at 37 °C and then washed three times with PBS (100 μL). The attached cells were fixed and stained with 0.2 % crystal violet in 20% methanol for 10 min, then washed three times with PBS ([…]). The cells were solubilized by 2% SDS and the OD was measured at 570 nm. Attachment was determined by both 1 and 3 h as described above. Each compound was tested in triplicate and each experiment was repeated three times.

[6] = test system: HUVEC migration; assay: HUVEC migration (wounding) assay; assay type: cell-based, human; conditions: 15 μM and 30 μM, 24 h
Experimental: Compounds were tested at concentrations of both 15 μM and 30 μM, and all seven compounds tested in this assay could inhibit HUVEC migration.
The HUVEC cell line was seeded on a pre-treated 48-well culture plate at a concentration of 2 × 10^4 cells per well in a volume of 200 μL, and a portion of the cell monolayer was scraped off with a sterile disposable rubber policeman. After the DMEM medium was removed, the cells in each well were then washed three times with PBS (phosphate-buffer saline), and fresh medium was added to each well. The wells were then tested after incubation for 24 h with or without quinazoline derivatives at various concentrations. Two random pictures were taken for each wound using a microscope. The area of the migrations was measured using Photoshop CS3. All measurements were done in triplicate, and the experiments were done at least three times.

[7] = test system: chick embryo chorioallantoic membrane (CAM); assay: CAM angiogenesis assay; assay type: in vivo; conditions: 30 μg/10 μL on filter disc, 48 h
Experimental: CAMs treated with 0.9% NaCl solution (negative control) were surrounded by all antoic vessels as newly-formed capillaries converging radially toward the sponge in a “spoked wheel” pattern (number of vessels 24 ± 3).
The in vivo CAM angiogenesis model as initially described by Folkman and then modified by Maragoudakis was used. Fertilized chicken eggs were used after incubating them for 8 days. A 1 cm × 1 cm window was made in the shell to create a pocket to expose the CAM. A filter disc with 0.9% NaCl solution or 30 μg/10 μL of compounds was then placed upon the CAM from 10 eggs per treatment and 48 h later, the CAMs were fixed with 4% paraformaldehyde and the vessel number from three random fields around the filter disc were pictured using a microscope.

## CN(C)CCCNc1nc(-c2ccccc2NC(=O)CCN2CCN(C)CC2)nc2ccccc12 [Compound 11d, N-(2-(4-(3-(Dimethylamino)propylamino)quinazolin-2-yl)phenyl)-3-(4-methylpiperazin-1-yl)propane-mide]
[1]
  IC50: 9.3 ± 0.2 µM
[2]
  IC50: 9.8 ± 0.3 µM
[3]
  IC50: 10.9 ± 0.2 µM
[4]
  IC50 at 48 h: 47.2 ± 0.2 µM
[5]; 1 h, 1 h, read-out: 1 h Inhibition Rate % Dose 15 μM
  inhibition at 15 µM: 47.4 ± 0.1%
[5]; 1 h, 1 h, read-out: 1 h Inhibition Rate % Dose 30 μM
  inhibition at 30 µM: 65.8 ± 0.2%
[5]; 3 h, 3 h, read-out: 3 h Inhibition Rate % Dose 15 μM
  inhibition at 15 µM: 53.3 ± 0.3%
[5]; 3 h, 3 h, read-out: 3 h Inhibition Rate % Dose 30 μM
  inhibition at 30 µM: 71.2 ± 0.1%
[6]
  inhibition of HUVEC migration: best inhibitory activity
[7]
  inhibition of angiogenesis in CAM assay: excellent inhibition of angiogenesis
other
  melting point: 167 to 168 °C
